Where a name gives a salt, the structure may show the parent alone.

On to `COc1ccc(S(=O)(=O)C(Cc2ccccc2)C(=O)NO)cc1` (stereo not drawn) [Example 9, N-Hydroxy-2-(4-methoxy-benzenesulfonyl)-3-phenyl-propionamide], for which the melting point – broadly, the temperature, or range, at which the solid turns liquid – turned out to be 180 °C.

As to `COc1ccc(CN2CCC(C(=O)NO)(S(=O)(=O)c3ccc(OC)cc3)CC2)cc1` (as salt: HCl) [Example 101, 4-(4-methoxy-benzenesulfonyl)-1-(4-methoxy-benzyl)-piperidine-4-carboxylic acid hydroxyamide], the melting point worked out at 175 °C.

Compound `CCCCOc1ccc(S(=O)(=O)C2(C(=O)NO)CCN(CCOc3ccccc3)CC2)cc1` (as salt: HCl) [Example 108, 4-(4-n-Butoxy-benzenesulfonyl)-1-(2-phenoxy-ethyl)-piperidine-4-carboxylic acid hydroxyamide] showed a melting point of 112 °C.

The compound `COc1ccc(S(=O)(=O)C(Cc2ccc3ccccc3c2)C(=O)NO)cc1` (stereo not drawn) [Example 40, N-Hydroxy-2-(4-methoxy-benzenesulfonyl)-3-naphthalen-2-yl-propionamide] had a melting point of 161 to 163 °C.

As for `COc1ccc(S(=O)(=O)C(C)(Cc2cccc(OCCN3CCOCC3)c2)C(=O)NO)cc1` (stereo not drawn) [Example 30, N-Hydroxy-2-(4-methoxy-benzenesulfonyl)-2-methyl-3-[3-(2-morpholin-1-yl-ethoxy)-phenyl]-propionamide], the melting point is 63 °C.

The compound `COc1ccc(S(=O)(=O)C2(C(=O)NO)CCN(CCOc3ccccc3)CC2)cc1` (as salt: HCl) [Example 107, 4-(4-methoxy-benzenesulfonyl)-1-(2-phenoxy-ethyl)-piperidine-4-carboxylic acid hydroxyamide] displayed a melting point of 168 to 172 °C.

Compound `COc1ccc(S(=O)(=O)C(C)(Cc2cccnc2)C(=O)NO)cc1` (stereo not drawn) [Example 61, N-hydroxy-2-(4-methoxy-benzenesulfonyl)-2-methyl-3-pyridin-3-yl-propionamide] registered a melting point of 98 °C.

`COc1ccc(S(=O)(=O)C(C)(Cc2ccc(-c3ccccc3)cc2)C(=O)NO)cc1` (stereo not drawn) [Example 14, 3-(Biphenyl-4-yl)-N-hydroxy-2-(4-methoxy-benzenesulfonyl)-2-methyl-propionamide] displayed a melting point of 177 °C.

`COc1ccc(S(=O)(=O)C(C)(Cc2ccc(OCCN3CCCCCC3)cc2)C(=O)NO)cc1` (stereo not drawn) [Example 18] registered a melting point of 68 °C.

`COc1ccc(S(=O)(=O)C(C)(Cc2ccccc2Br)C(=O)NO)cc1` (stereo not drawn) [Example 55, 3-(2-Bromo-phenyl)-N-hydroxy-2-(4-methoxy-benzenesulfonyl)-2-methyl-propionamide] yielded a melting point of 93 to 96 °C.

In turn, `COc1ccc(S(=O)(=O)C2(C(=O)NO)CCN(Cc3cccc(OC)c3)CC2)cc1` [Example 84, 4-(4-methoxy-benzenesulfonyl)-1-(3-methoxy-benzyl)-piperidine-4-carboxylic acid hydroxyamide] registered a melting point of 130 °C.

Regarding `CCC(Cc1ccc(OCCN2CCOCC2)cc1)(C(=O)NO)S(=O)(=O)c1ccc(OC)cc1` (stereo not drawn) [Example 33, N-Hydroxy-2-(4-methoxy-benzenesulfonyl)-2-[4-(2-morpholin-4yl-ethoxy)-benzyl]-butyramide], the melting point came to 51 °C.

The compound `COc1ccc([S+]([O-])C(C(=O)NO)C(C)C)cc1` (stereo not drawn) [Example 7, N-Hydroxy-2-(4-methoxy-benzenesulfinyl)-3-methyl-butyramide] showed a melting point of 163 °C.

Compound `CC#CCC(CC#CC)(C(=O)NO)S(=O)(=O)c1ccc(OC)cc1` [Example 72, 2-(4-Methoxy-benzenesulfonyl)-2-but-2-ynyl-hex-4-ynoic acid hydroxyamide] displayed a melting point of 141 to 143 °C.

On to `Cn1ccnc1S(=O)(=O)C(C)(Cc1ccc(-c2ccccc2)cc1)C(=O)NO` (stereo not drawn) [Example 47, 3-Biphenyl-4-yl-2-methyl-2-(1-methyl-1H-imidazole-2-sulfonyl)-propionic acid hydroxyamide], for which the melting point came out at 112 °C.

Compound `CCCCOc1ccc(S(=O)(=O)C2(C(=O)NO)CCN(Cc3ccccc3)CC2)cc1` [Example 98, 1-Benzyl-4-(4-butoxy-benzenesulfonyl)-piperidine-4-carboxylic acid hydroxyamide] yielded a melting point of 144 °C.

`CCCCC(Cc1ccc(OCCN(CC)CC)cc1)(C(=O)NO)S(=O)(=O)c1ccc(OC)cc1` (stereo not drawn) [Example 27, 2-[4-(2-Diethylamino-ethoxy)-benzyl]-2-(4-methoxy-benzenesulfonyl)-hexanoic acid hydroxyamide] gave a melting point of 67 °C.

`COc1ccc(S(=O)(=O)C(C)(CC=Cc2ccccc2)C(=O)NO)cc1` (stereo not drawn) [Example 56, 2-(4-methoxy-benzenesulfonyl)-2-methyl-5-phenyl-pent-4-enoic acid hydroxyamide]: the melting point was 162 to 164 °C.

`COc1ccc(S(=O)(=O)C(C)(Cc2ccc(Br)cc2)C(=O)NO)cc1` (stereo not drawn) [Example 51, 3-(4-Bromo-phenyl)-N-hydroxy-2-(4-methoxy-benzenesulfonyl)-2-methyl-propionamide] had a melting point of 86 to 88 °C.

`COc1ccc(CCN2CCC(C(=O)NO)(S(=O)(=O)c3ccc(OC)cc3)CC2)cc1` (as salt: HCl) [Example 102, 4-(4-methoxy-benzenesulfonyl)-1-[2-(4-methoxyphenyl)-ethyl]-piperidine-4-carboxylic acid hydroxyamide] registered a melting point of 206 °C.

With `CCCCCC#CCC(Cc1cccnc1)(C(=O)NO)S(=O)(=O)c1ccc(OC)cc1` (stereo not drawn) (as salt: salt) [Example 74, 2-(4-Methoxy-benzenesulfonyl)-2-pyridin-3-ylmethyl-dec-4-ynoic acid hydroxyamide], the melting point amounted to 65 °C.

The compound `CCCCCC#CCC(CC#CCCCCC)(C(=O)NO)S(=O)(=O)c1ccc(OC)cc1` [Example 71, 2-(4-methoxy-benzenesulfonyl)-2-oct-2-ynyl-dec-4-ynoic acid hydroxyamide] registered a melting point of 83 to 84 °C.

`CCN(CC)CCOc1ccc(CC(C)(C(=O)NO)S(=O)(=O)c2ccc(OC)cc2)cc1` (stereo not drawn) (as salt: HCl) [Example 21, N-Hydroxy-2-(4-methoxy-benzenesulfonyl)-2-methyl-3-[4-(2-N,N-diethylamino-ethoxy)-phenyl]-propionamide] showed a melting point of 56 to 59 °C.

Compound `CCC(Cc1ccc(OCCN2CCCCC2)cc1)(C(=O)NO)S(=O)(=O)c1ccc(OC)cc1` (stereo not drawn) [Example 34, N-Hydroxy-2-(4-methoxy-benzenesulfonyl)-2-[4-(2-piperdin-1-yl-ethoxy)-benzyl]-butyramide] gave a melting point of 75 °C.

Compound `COc1ccc(S(=O)(=O)C(C(=O)NO)C(C)C)cc1` (stereo not drawn) [Example 53, N-Hydroxy-2-(4methoxy-benzenesulfonyl)-3-methyl-butyramide] gave a melting point of 220 °C.

The compound `CCCC(Cc1ccc(OCCN2CCCCCC2)cc1)(C(=O)NO)S(=O)(=O)c1ccc(OC)cc1` (stereo not drawn) [Example 19, 2-[4-(2-Azepan-1-yl-ethoxy)-benzyl]-2-(4-methoxy-benzenesulfonyl)-pentanoic acid hydroxyamide] yielded a melting point of 85 °C.

Turning to `C#CCC(Cc1cccnc1)(C(=O)NO)S(=O)(=O)c1ccc(OC)cc1` (stereo not drawn) [Example 75, 2-(4-Methoxy-benzenesulfonyl)-2-pyridin-3-ylmethyl-pent-4-ynoic acid hydroxyamide], the melting point fell in the range of 119 to 121 °C.

The values above are taken from patent publication US6342508B1, “N-hydroxy-2-(Alkyl,Aryl or Heteroaryl sulfanyl, sulfinyl or sulfonyl) 3-substituted alkyl, aryl or heteroarylamides as matrix metalloproteinase inhibitors” (American Cyanamid Company, priority 1997, dated 2002).
